{"source": "patent US8362050B2", "about": "“Compounds and methods for modulating G protein-coupled receptors” (IRM LLC, priority 2008, dated 2013)", "molecular_target": "T1, Human GPR120 (Homo sapiens, UniProt Q5NUL3)", "T1 construct": "Ga16 (promiscuous G protein) fusion partner; expressed in transfected cells", "T1 sequence (Q5NUL3 with tags, fused parts or gaps)": "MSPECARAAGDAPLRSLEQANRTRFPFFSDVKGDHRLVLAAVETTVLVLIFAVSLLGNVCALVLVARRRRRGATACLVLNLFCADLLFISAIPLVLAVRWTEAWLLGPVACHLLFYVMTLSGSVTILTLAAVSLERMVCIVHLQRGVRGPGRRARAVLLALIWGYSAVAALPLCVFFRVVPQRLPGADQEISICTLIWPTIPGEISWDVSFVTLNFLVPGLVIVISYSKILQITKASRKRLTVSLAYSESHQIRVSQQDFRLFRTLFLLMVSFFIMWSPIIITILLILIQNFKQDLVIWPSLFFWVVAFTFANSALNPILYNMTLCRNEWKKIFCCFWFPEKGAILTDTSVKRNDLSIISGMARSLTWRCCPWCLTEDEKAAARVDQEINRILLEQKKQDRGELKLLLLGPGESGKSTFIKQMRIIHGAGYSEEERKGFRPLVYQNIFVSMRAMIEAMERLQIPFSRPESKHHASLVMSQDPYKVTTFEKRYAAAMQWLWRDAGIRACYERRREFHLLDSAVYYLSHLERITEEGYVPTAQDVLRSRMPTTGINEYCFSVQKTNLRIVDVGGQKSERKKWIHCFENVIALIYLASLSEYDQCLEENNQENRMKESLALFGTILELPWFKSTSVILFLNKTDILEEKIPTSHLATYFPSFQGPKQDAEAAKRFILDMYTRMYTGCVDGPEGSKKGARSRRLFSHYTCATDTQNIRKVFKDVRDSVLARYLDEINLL", "assay": "FLIPR assay: agonist-induced calcium mobilization in HEK293-GPR120-Ga16 cells", "format": "cell-based", "conditions": "for EC50: GPR120 activation, calcium mobilization, HEK293-GPR120-Ga16 cells; for Emax: % enhancement of the test compound relative to a known compound, read-out: % Efficiency", "protocol": "Human GPR120 stable cell-line was generated in HEK293 cells. GPR120 (Accession number BC101175) is fused to a promiscuous G protein, Ga16. The expression plasmid is transfected into HEK293 cells using Fugene6 following manufacturer's instruction. Stable cell-lines are generated following drug selection.\nFLIPR (Fluorimetric Imaging Plate Reader, Molecular Devices) assays are performed to measure agonist-induced calcium mobilization in the GPR120-expressing cells. One day before the FLIPR assay, HEK293-GPR120-Ga16 cells are seeded into poly-D-lysine coated black-wall-clear bottom 384 well plates (Falcon) at 25,000 cells per well in 40 μl DMEM supplemented with 1% of FBS. The cells are incubated overnight at 37° C. in a humidified incubator. The medium is aspirated on the day of the FLIPR assay. The cells are incubated with 50 μl/well of the assay buffer (HBSS, 20 mM HEPES, 2.5 mM probenecid, pH7.4) containing Fluo-4 NM dye (Invitrogen cat# F36205) at 37° C. for 45 minutes, and then equilibrated at room temperature for 30 minutes. Compounds are dissolved in DMSO and diluted to desired concentrations with assay buffer. Fluorescent output is measured immediately following compound addition (12.5 μl/well) on the FLIPR machine.\nAn EC50 value was calculated using the change of fluorescent intensity from the reaction initiation. […] In some examples, compounds provided herein have EC50 values from 0.1 μM to 5 μM, while in other examples from 0.5 μM to 5 μM.\nThe EC50 value in those experiments is given as that concentration of the test compound in question that provoke a response halfway between the baseline and maximum responses. In certain examples compounds of Formula (I) have EC50 values from 0.001 μM to 5 μM. In other examples, compounds of Formula (I) have EC50 values from 0.001 μM to 4 μM. In other examples, compounds of Formula (I) have EC50 values from 0.001 μM to 3 μM. In other examples, compounds of Formula (I) have EC50 values from 0.001 μM to 2 μM. In other examples, compounds of Formula (I) have EC50 values from 0.001 μM to 1 μM. In other examples, compounds of Formula (I) have EC50 values from 0.001 μM to 0.5 μM. […] In other examples, compounds of Formula (I) have EC50 values from 0.001 μM to 0.1 μM.\nThe % efficiency in those experiments is given as that % enhancement of the test compound in question relative to a known compound. In certain examples compounds of Formula (I) have a % efficiency values from 50% to 150%. In other examples, compounds of Formula (I) have a % efficiency values from 55% to 150%. In other examples, compounds of Formula (I) have a % efficiency values from 60% to 150%. In other examples, compounds of Formula (I) have a % efficiency values from 65% to 150%. In other examples, compounds of Formula (I) have a % efficiency values from 70% to 150%. In other examples, compounds of Formula (I) have a % efficiency values from 75% to 150%. In other examples, compounds of Formula (I) have a % efficiency values from 80% to 150%. In other examples, compounds of Formula (I) have a % efficiency values from 85% to 150%. In other examples, compounds of Formula (I) have a % efficiency values from 90% to 150%. In other examples, compounds of Formula (I) have a % efficiency values from 95% to 150%. In other examples, compounds of Formula (I) have a % efficiency values from 100% to 150%.", "note": "Where two headings read alike, the source gives them in different places."}
{"smiles": "COc1cccc(-c2noc(-c3cccc(C(=O)O)c3)n2)c1", "note": "[Compound 53, 3-(3-(3-methoxyphenyl)-1,2,4-oxadiazol-5-yl)benzoic acid]", "values": [{"measurement": "EC50", "setting": "read-out: EC50 Range", "value": "500 to 1000", "unit": "nM"}]}
{"smiles": "COc1ccc(-n2cc(-c3cccc(C(=O)O)c3)nn2)cc1", "note": "[Compound 54, 3-(1-(4-methoxyphenyl)-1H-1,2,3-triazol-4-yl)benzoic acid]", "values": [{"measurement": "Emax", "value": 68.9, "unit": "%"}, {"measurement": "EC50", "setting": "read-out: EC50", "value": 1400, "unit": "nM"}, {"measurement": "EC50", "setting": "read-out: EC50 Range", "value": "1000 to 5000", "unit": "nM"}]}
{"smiles": "COc1ccc(-c2cn(-c3cccc(C(=O)O)c3)nn2)cc1", "note": "[Compound 55, 3-(4-(4-methoxyphenyl)-1H-1,2,3-triazol-1-yl)benzoic acid]", "values": [{"measurement": "EC50", "setting": "read-out: EC50 Range", "value": "1000 to 5000", "unit": "nM"}]}
{"smiles": "COc1ccc(-c2nc(-c3cccc(C(=O)O)c3)no2)cc1", "note": "[Compound 56, 3-(5-(4-methoxyphenyl)-1,2,4-oxadiazol-3-yl)-benzoic acid]", "values": [{"measurement": "Emax", "value": 60.4, "unit": "%"}, {"measurement": "EC50", "setting": "read-out: EC50", "value": 290, "unit": "nM"}, {"measurement": "EC50", "setting": "read-out: EC50 Range", "value": "250 to 500", "unit": "nM"}]}
{"smiles": "Cc1ccc(-c2cn(-c3cccc(C(=O)O)c3)nn2)cc1", "note": "[Compound 57, 3-(4-p-tolyl-1H-1,2,3-triazol-1-yl)benzoic acid]", "values": [{"measurement": "Emax", "value": 53.7, "unit": "%"}, {"measurement": "EC50", "setting": "read-out: EC50", "value": 1340, "unit": "nM"}, {"measurement": "EC50", "setting": "read-out: EC50 Range", "value": "1000 to 5000", "unit": "nM"}]}
{"smiles": "O=C(O)c1cccc(-n2cc(-c3ccc(C(F)(F)F)cc3)nn2)c1", "note": "[Compound 58, 3-(4-(4-(trifluoromethyl)phenyl)-1H-1,2,3-triazol-1-yl)benzoic acid]", "values": [{"measurement": "EC50", "setting": "read-out: EC50 Range", "value": "1000 to 5000", "unit": "nM"}]}
{"smiles": "O=C(O)c1cccc(-n2cc(-c3ccc(Cl)cc3)nn2)c1", "note": "[Compound 59, 3-(4-(4-chlorophenyl)-1H-1,2,3-triazol-1-yl)benzoic acid]", "values": [{"measurement": "EC50", "setting": "read-out: EC50 Range", "value": "1000 to 5000", "unit": "nM"}]}
{"smiles": "O=C(O)c1cccc(-n2cc(-c3ccccc3F)nn2)c1", "note": "[Compound 60, 3-(4-(2-fluorophenyl)-1H-1,2,3-triazol-1-yl)benzoic acid]", "values": [{"measurement": "EC50", "setting": "read-out: EC50 Range", "value": "1000 to 5000", "unit": "nM"}]}
{"smiles": "CCc1ccc(-c2cn(-c3cccc(C(=O)O)c3)nn2)cc1", "note": "[Compound 61, 3-(4-(4-ethylphenyl)-1H-1,2,3-triazol-1-yl)benzoic acid]", "values": [{"measurement": "EC50", "setting": "read-out: EC50 Range", "value": "500 to 1000", "unit": "nM"}]}
{"smiles": "O=C(O)c1cccc(-n2cc(-c3ccc(F)cc3F)nn2)c1", "note": "[Compound 62, 3-(4-(2,4-difluorophenyl)-1H-1,2,3-triazol-1-yl)benzoic acid]", "values": [{"measurement": "EC50", "setting": "read-out: EC50 Range", "value": "250 to 500", "unit": "nM"}]}
{"smiles": "O=C(O)c1cccc(-n2cc(-c3ccc(Br)cc3)nn2)c1", "note": "[Compound 63, 3-(4-(4-bromophenyl)-1H-1,2,3-triazol-1-yl)benzoic acid]", "values": [{"measurement": "EC50", "setting": "read-out: EC50 Range", "value": "1000 to 5000", "unit": "nM"}]}
{"smiles": "CC(C)c1ccc(-n2cc(-c3cccc(C(=O)O)c3)nn2)cc1", "note": "[Compound 64, 3-(1-(4-isopropylphenyl)-1H-1,2,3-triazol-4-yl)benzoic acid]", "values": [{"measurement": "Emax", "value": 69, "unit": "%"}, {"measurement": "EC50", "setting": "read-out: EC50", "value": 878, "unit": "nM"}, {"measurement": "EC50", "setting": "read-out: EC50 Range", "value": "500 to 1000", "unit": "nM"}]}
{"smiles": "CCc1ccc(-c2cn(-c3cc(OC)cc(C(=O)O)c3)nn2)cc1", "note": "[Compound 65, 3-(4-(4-ethylphenyl)-1H-1,2,3-triazol-1-yl)-5-methoxybenzoic acid]", "values": [{"measurement": "EC50", "setting": "read-out: EC50 Range", "value": "1000 to 5000", "unit": "nM"}]}
{"smiles": "CCc1ccc(-c2cn(-c3cc(F)cc(C(=O)O)c3)nn2)cc1", "note": "[Compound 66, 3-(4-(4-ethylphenyl)-1H-1,2,3-triazol-1-yl)-5-fluorobenzoic acid]", "values": [{"measurement": "EC50", "setting": "read-out: EC50 Range", "value": "500 to 1000", "unit": "nM"}]}
{"smiles": "Cc1ccc(-n2cc(-c3cccc(C(=O)O)c3)nn2)c(F)c1", "note": "[Compound 67, 3-(1-(2-fluoro-4-methylphenyl)-1H-1,2,3-triazol-4-yl)benzoic acid]", "values": [{"measurement": "EC50", "setting": "read-out: EC50 Range", "value": "100 to 250", "unit": "nM"}]}
{"smiles": "CCc1ccc(-c2cn(-c3ccc(Cl)c(C(=O)O)c3)nn2)cc1", "note": "[Compound 68]", "values": [{"measurement": "EC50", "setting": "read-out: EC50 Range", "value": "> 5000", "unit": "nM"}]}
{"smiles": "CCc1ccc(-c2cn(-c3ccc(F)c(C(=O)O)c3)nn2)cc1", "note": "[Compound 69, 5-(4-(4-ethylphenyl)-1H-1,2,3-triazol-1-yl)-2-fluorobenzoic acid]", "values": [{"measurement": "EC50", "setting": "read-out: EC50 Range", "value": "1000 to 5000", "unit": "nM"}]}
{"smiles": "CCc1ccc(-c2cn(-c3cc(C(=O)O)ccc3F)nn2)cc1", "note": "[Compound 70, 3-(4-(4-ethylphenyl)-1H-1,2,3-triazol-1-yl)-4-fluorobenzoic acid]", "values": [{"measurement": "EC50", "setting": "read-out: EC50 Range", "value": "1000 to 5000", "unit": "nM"}]}
